Measured values taken from patent US20250049033A1, “PESTICIDALLY ACTIVE PYRIDAZINONE COMPOUNDS” (SYNGENTA CROP PROTECTION AG, priority 2021, published 2025).

Tests used:
Type in all cases: in vivo
[1] = tested on: Frankliniella occidentalis; assay: Activity against Frankliniella occidentalis (western flower thrips), feeding/contact activity; conditions: foliar, 168 h, application rate 200 ppm, 7 days after infestation, sunflower leaf discs, mixed ages
Description: Example B4: Activity Against Frankliniella occidentalis (Western Flower Thrips). Feeding/Contact Activity
Sunflower leaf discs were placed on agar in 24-well microtiter plates and sprayed with aqueous test solutions prepared from […] stock solutions. After drying the leaf discs were infested with a Frankliniella population of mixed ages. The samples were assessed for mortality 7 days after infestation.

[2] = tested on: Euschistus heros; assay: Activity against Euschistus heros (neotropical brown stink bug), soybean leaves, N2 nymphs; conditions: 120 h, application rate 200 ppm, 5 days after infestation, vs untreated, read-out: effect in at least one of the two categories (mortality or growth inhibition)
Description: Example B3: Activity Against Euschistus heros (Neotropical Brown Stink Bug)
Soybean leaves on agar in 24-well microtiter plates were sprayed with aqueous test solutions prepared from 10′000 ppm DMSO stock solutions. After drying the leaves were infested with N2 nymphs. The samples were assessed for mortality and growth inhibition in comparison to untreated samples 5 days after infestation.

[3] = tested on: Chilo suppressalis; assay: Activity against Chilo suppressalis (striped rice stemborer), artificial diet, L2 larvae; conditions: 144 h, application rate 200 ppm, 6 days after infestation, vs untreated, read-out: control in at least one of the three categories (mortality, anti-feedant effect, or growth inhibition)
Description: Example B1: Activity Against Chilo suppressalis (Striped Rice Stemborer)
24-well microtiter plates with artificial diet were treated with aqueous test solutions prepared from 10′000 ppm DMSO stock solutions by pipetting. After drying, the plates were infested with L2 larvae (6-8 per well). The samples were assessed for mortality, anti-feeding effect, and growth inhibition in comparison to untreated samples 6 days after infestation. Control of Chilo suppressalis by a test sample is given when at least one of the categories mortality, anti-feedant effect, and growth inhibition is higher than the untreated sample.

[4] = tested on: Myzus persicae; assay: Activity against Myzus persicae (green peach aphid), intrinsic activity; conditions: 120 h, test rate 12 ppm, 5 days after infestation, sucrose solution through Parafilm
From the text: Example B6: Activity Against Myzus persicae (Green Peach Aphid). Intrinsic Activity
Test compounds prepared from 10′000 ppm DMSO stock solutions were applied by pipette into 24-well microtiter plates and mixed with sucrose solution. The plates were closed with a stretched Parafilm. A plastic stencil with 24 holes was placed onto the plate and infested pea seedlings were placed directly on the Parafilm. The infested plate was closed with a gel blotting paper and another plastic stencil and then turned upside down. The samples were assessed for mortality 5 days after infestation.

[5] = tested on: Plutella xylostella; assay: Activity against Plutella xylostella (diamond back moth), artificial diet, eggs; conditions: 192 h, application rate 200 ppm, 8 days after infestation, vs untreated, read-out: control in at least one of the two categories (mortality or growth inhibition)
Description: Example B7: Activity Against Plutella xylostella (Diamond Back Moth)
24-well microtiter plates with artificial diet were treated with aqueous test solutions prepared from 10′000 ppm DMSO stock solutions by pipetting. After drying, Plutella eggs were pipetted through a plastic stencil onto a gel blotting paper and the plate was closed with it. The samples were assessed for mortality and growth inhibition in comparison to untreated samples 8 days after infestation. The following compounds gave an effect of at least 80% control in at least one of the two categories (mortality or growth inhibition) at an application rate of 200 ppm: P1, P2, P3, P4, P6, P7, P8, P9, P10, P11, P12, P13, P14, P15, P16, P17, P18, P19, P20, P21, P22, P23, P24, P25, P26, P27.

[6] = tested on: Tetranychus urticae; assay: Activity against Tetranychus urticae (two-spotted spider mite), feeding/contact activity; conditions: foliar, 192 h
Description: Example B9: Activity Against Tetranychus urticae (Two-Spotted Spider Mite). Feeding/Contact Activity
Bean leaf discs on agar in 24-well microtiter plates were sprayed with aqueous test solutions prepared from 10′000 ppm DMSO stock solutions. After drying the leaf discs were infested with a mite population of mixed ages. The samples were assessed for mortality on mixed population (mobile stages) 8 days after infestation.

[7] = tested on: Diabrotica balteata; assay: Activity against Diabrotica balteata (corn root worm), maize sprouts, L2 larvae; conditions: 96 h, application rate 200 ppm, 4 days after infestation, vs untreated, read-out: control in at least one of the two categories (mortality or growth inhibition)
Description: Example B2: Activity Against Diabrotica balteata (Corn Root Worm)
Maize sprouts placed onto an agar layer in 24-well microtiter plates were treated with aqueous test solutions prepared from 10′000 ppm DMSO stock solutions by spraying. After drying, the plates were infested with L2 larvae (6 to 10 per well). The samples were assessed for mortality and growth inhibition in comparison to untreated samples 4 days after infestation.

[8] = tested on: Myzus persicae; assay: Activity against Myzus persicae (green peach aphid), feeding/contact activity; conditions: foliar, 144 h, application rate 200 ppm, 6 days after infestation, sunflower leaf discs, mixed ages
Description: Example B5: Activity Against Myzus persicae (Green Peach Aphid). Feeding/Contact Activity
Sunflower leaf discs were placed onto agar in a 24-well microtiter plate and sprayed with aqueous test solutions prepared from 10′000 ppm DMSO stock solutions. After drying, the leaf discs were infested with an aphid population of mixed ages. The samples were assessed for mortality 6 days after infestation.

[9] = tested on: Spodoptera littoralis; assay: Activity against Spodoptera littoralis (Egyptian cotton leaf worm), cotton leaf discs, L1 larvae; conditions: foliar, 72 h, application rate 200 ppm, 3 days after infestation, vs untreated, read-out: control in at least one of the three categories (mortality, anti-feedant effect, or growth inhibition)
Description: Example B8: Activity Against Spodoptera littoralis (Egyptian Cotton Leaf Worm)
Cotton leaf discs were placed onto agar in 24-well microtiter plates and sprayed with aqueous test solutions prepared from 10′000 ppm DMSO stock solutions. After drying the leaf discs were infested with five L1 larvae. The samples were assessed for mortality, anti-feeding effect, and growth inhibition in comparison to untreated samples 3 days after infestation. Control of Spodoptera littoralis by a test sample is given when at least one of the categories mortality, anti-feedant effect, and growth inhibition is higher than the untreated sample.

C[C@H](Nc1nc(=O)[nH]c2c(Cl)cc(C(F)(F)F)cc12)c1ncnn1-c1ccc(=O)n(C)n1 [P5, 8-chloro-4-[[(1S)-1-[2-(1-methyl-6-oxo-pyridazin-3-yl)-1,2,4-triazol-3-yl]ethyl]amino]-6-(trifluoromethyl)-1H-quinazolin-2-one]
≥ 80%: mortality at 200 ppm [1] | percent effect (mortality or growth inhibition) at 200 ppm [2]

C[C@@H](c1nccnc1-c1ccc(=O)n(C)n1)N(C)c1ncnc2c(C(F)(F)F)cc(Cl)cc12 (single isomer, unassigned) [P27]
≥ 80%: percent control (mortality, anti-feedant effect or growth inhibition) at 200 ppm [3] | mortality at 12 ppm [4] | percent control (mortality or growth inhibition) at 200 ppm [5] | mortality at 200 ppm [6] | percent control (mortality or growth inhibition) at 200 ppm [7] | mortality at 200 ppm [8] | percent effect (mortality or growth inhibition) at 200 ppm [2] | percent control (mortality, anti-feedant effect or growth inhibition) at 200 ppm [9]
